Measured values reported in PMC10331583, “Control of fibrosis with enhanced safety via asymmetric inhibition of prolyl‐tRNA synthetase 1” (EMBO Molecular Medicine, 2023).
Where “and” joins values, the source holds several entries; their conditions need not be identical. Equal entries are not always repeated.

Legend:
[1] = molecular target: T1, PARS1 (Homo sapiens, UniProt P07814); experiment: In vitro prolylation assay; type: biochemical
T1 construct: His‐PARS1 (1001–1,512 aa); His; made in house; host or cells: Escherichia coli
T1 sequence (P07814 1001-1512 limits assumed): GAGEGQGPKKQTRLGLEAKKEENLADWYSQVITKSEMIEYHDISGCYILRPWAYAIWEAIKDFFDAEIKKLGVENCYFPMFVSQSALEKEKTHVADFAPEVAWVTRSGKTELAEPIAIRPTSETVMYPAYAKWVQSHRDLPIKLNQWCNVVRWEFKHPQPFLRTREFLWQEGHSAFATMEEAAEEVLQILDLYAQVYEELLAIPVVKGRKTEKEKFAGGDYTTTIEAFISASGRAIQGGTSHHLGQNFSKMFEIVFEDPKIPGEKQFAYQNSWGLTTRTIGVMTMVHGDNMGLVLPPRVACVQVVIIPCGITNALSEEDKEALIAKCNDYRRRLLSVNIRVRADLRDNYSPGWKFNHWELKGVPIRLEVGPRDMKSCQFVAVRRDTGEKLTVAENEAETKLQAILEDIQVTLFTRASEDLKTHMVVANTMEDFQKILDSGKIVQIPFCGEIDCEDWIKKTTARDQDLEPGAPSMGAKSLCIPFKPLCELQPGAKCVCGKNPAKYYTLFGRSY
Description: The enzyme reaction was initiated by the addition of 100 nM purified His‐PARS1 (1001–1,512 aa). After 5 min, the reaction mixture was quenched on Whatman filter paper presoaked with 5% trichloroacetic acid (TCA). The filter papers were washed three times in 5% TCA for 10 min at 4°C and once in 100% ethanol for 10 min. The filter papers were dried, and radioactivity was quantified using liquid scintillation counter (LSC).
After 1 h, the reaction mixture was quenched on Whatman filter paper presoaked with 5% TCA. The filter papers were washed three times in 5% TCA for 10 min at 4°C and once in 100% ethanol for 10 min. The filter papers were dried, and radioactivity was quantified using LSC.

[2] = Two‐week repeated‐dose toxicity study, HF versus DWN12088; type: in vivo, mice; settings: male, ICR (CrljOri: CD1), mouse, in vivo; oral once daily for 2 weeks, ICR mice
Description: (§1) To compare the in vivo toxicity of HF and DWN12088, all experiments were conducted following the international guidelines on the ethical use of experimental animals and approved by the Institutional Animal Care and Use Committee of KNOTUS (KNOTUS IACUC 21‐KE‐250 and KNOTUS IACUC 21‐KE‐359). ICR (CrljOri: CD1) mice (7‐week‐old, male, obtained from Koatech) were randomized (n = 6 for each group) and then orally administered with the indicated amounts of HF or DWN12088 once daily for 2 weeks. In the high‐dose group, the dose of DWN12088 was reduced from 120 mg/kg to 90 mg/kg from day 6. […] Body weight was measured at day 1, 2, 3, 4, 5, 8, 14, and 15.
(§2) After administering the drugs for 2 weeks, mice were fasted overnight and anesthetized with isoflurane. Blood samples were collected in EDTA‐coated tubes, and the following parameters were determined using a hematology analyzer (ADVIA 2120, SIEMENS, USA); red blood cell, platelet count, hematocrit, white blood cell, red cell distribution width, hemoglobin concentration distribution width, hemoglobin concentration, neutrophil, mean corpuscular volume, lymphocyte, mean cell hemoglobin, monocyte, mean cell hemoglobin concentration, eosinophil, mean platelet volume, basophil, reticulocytes, and large unstained cells.
(§3) For clinical chemistry, the remaining blood samples were incubated in a vacutainer tube with clot activator and then centrifuged to prepare serum. The following parameters were measured in the serum using a chemistry analyzer (7180, Hitachi, Japan) and electrolyte analyzer (AVL 9180, Roche, Switzerland); aspartate aminotransferase, albumin, alanine aminotransferase, albumin/globulin ratio, alkaline phosphatase, blood urea nitrogen, creatine phosphokinase, creatinine, total bilirubin, inorganic phosphorus, glucose, calcium, total cholesterol, sodium, triglyceride, potassium, total protein, and chloride.
(§4) After blood collection, blood was drained by incising the abdominal aorta and posterior vena cava, and all organs of the skin, brain, thoracic cavity, and abdominal cavity were observed. The relative weights of the lung, spleen, liver, heart, kidney, thymus, and testes were calculated by dividing the weight of each organ by the body weight. The experiments were conducted as non‐blind test.

[3] = system: ICR (CrljOri: CD1) mice; experiment: as above; type: in vivo
Description: as §1, §2, §3, §4

[4] = molecular target: T2, PARS1 WT (Homo sapiens, UniProt P07814); experiment: Microscale thermophoresis (MST), PARS1 WT; type: binding; settings: for Fraction bound: single replicates
T2 construct: His‐PARS1 (1001–1,512 aa); made in house; host or cells: Escherichia coli
T2 sequence (P07814 1001-1512 limits assumed): T1 sequence (P07814 1001-1512 limits assumed)

Structure (SMILES): O=C(CC1NCCCC1O)Cn1cnc2cc(Br)c(Cl)cc2c1=O (stereo not drawn) [HF, Halofuginone, reference compound]
- IC50 ([1]; IC50, 1 μM Pro, 5 mM ATP): 24.5 nM
- IC50 ([1]; IC50, 10 μM Pro, 5 mM ATP): 46.2 nM
- IC50 ([1]; IC50, 100 μM Pro, 2.5 mM ATP): 137 nM
- IC50 ([1]; IC50, 100 μM Pro, 5 mM ATP): 103 nM
- IC50 ([1]; IC50, 100 μM Pro, 10 mM ATP): 101 nM
- mode of PARS1 inhibition ([1]; IC50 at different proline and ATP concentrations): proline‐competitive and ATP‐uncompetitive
- NOAEL at 2 weeks [2]: < 0.375 mg/kg
- Mortality: Found dead ([3]; 1.5 mg/kg oral once daily, 1 animal on day 5, 2 on day 6): Found dead: 3/6 (1 animal on day 5, 2 animals on day 6) Terminal sacrifice: 3/6 (on day 6)
- Mortality: Terminal sacrifice ([3]; 1.5 mg/kg oral once daily, on day 6): Found dead: 3/6 (1 animal on day 5, 2 animals on day 6) Terminal sacrifice: 3/6 (on day 6)
- reduction in body weight ([3]; mouse, in vivo): > 10%
- Fraction bound, average ([4]; Dose 3.0518 nM): -0.0712
- Fraction bound ([4]; Dose 3.0518 nM): -0.0993 and -0.0066 and -0.1077
- Fraction bound, average ([4]; Dose 6.1035 nM): -0.0015
- Fraction bound ([4]; Dose 6.1035 nM): 0.0287 and -0.0242 and -0.0091
- Fraction bound, average ([4]; Dose 12.207 nM): 0.0765
- Fraction bound ([4]; Dose 12.207 nM): 0.1266 and 0.0543 and 0.0485
- Fraction bound, average ([4]; Dose 24.4141 nM): 0.1050
- Fraction bound ([4]; Dose 24.4141 nM): 0.1952 and 0.1143 and 0.0054
- Fraction bound, average ([4]; Dose 48.8281 nM): 0.1434
- Fraction bound ([4]; Dose 48.8281 nM): 0.1825 and 0.1031 and 0.1448
- Fraction bound, average ([4]; Dose 97.6563 nM): 0.2466
- Fraction bound ([4]; Dose 97.6563 nM): 0.2751 and 0.2161 and 0.2485
- Fraction bound, average ([4]; Dose 195.312 nM): 0.5229
- Fraction bound ([4]; Dose 195.312 nM): 0.5425 and 0.5488 and 0.4774
- Fraction bound, average ([4]; Dose 390.625 nM): 0.7387
- Fraction bound ([4]; Dose 390.625 nM): 0.7958 and 0.7241 and 0.6962
- Fraction bound, average ([4]; Dose 781.25 nM): 0.9030
- Fraction bound ([4]; Dose 781.25 nM): 0.8890 and 0.8991 and 0.9209
- Fraction bound, average ([4]; Dose 1562.5 nM): 0.9612
- Fraction bound ([4]; Dose 1562.5 nM): 0.9380 and 1.0072 and 0.9382
- Fraction bound, average ([4]; Dose 3125 nM): 0.9287
- Fraction bound ([4]; Dose 3125 nM): 0.9278 and 0.9164 and 0.9420
- Fraction bound, average ([4]; Dose 6250 nM): 0.9609
- Fraction bound ([4]; Dose 6250 nM): 0.9251 and 0.9572 and 1.0004
- Fraction bound, average ([4]; Dose 12500 nM): 0.9979
- Fraction bound ([4]; Dose 12500 nM): 0.9525 and 1.0119 and 1.0291
- Fraction bound, average ([4]; Dose 25000 nM): 1.0497
- Fraction bound ([4]; Dose 25000 nM): 1.0026 and 1.0240 and 1.1224
- Fraction bound, average ([4]; Dose 50000 nM): 0.9548
- Fraction bound ([4]; Dose 50000 nM): 0.8756 and 0.9971 and 0.9917
- Fraction bound, average ([4]; Dose 100000 nM): 1.0743
- Fraction bound ([4]; Dose 100000 nM): 1.0331 and 1.0480 and 1.1418
